Earlier results, collected in PubChem BioAssay AID1259409 (Chemical Carcinogenesis Research Information System (CCRIS), 2018).

Tested on: rodent chemically induced tumor inhibition, incidence and multiplicity
Assay: CCRIS tumor inhibitor studies
Conditions: for outcome: Carcinogen: NONE, Strain/Sex: APC/MIN/MALE

Q: Which “tumour outcome (control, treated, inhibition, significance)” value (Carcinogen: N-METHYL-N-NITROSOUREA, 684-93-5, Dose [Inhibitor]: 0.5 ML OF 2% AGENT IN 0.9% SALINE SOLUTION TWICE IN WK 1 THEN ONCE 2 HR POST CARCINOGEN TREATMENT THEN TWICE IN WK 2 (ST, Route [Inhibitor]: INTRAVESICAL, Species: RAT, Strain/Sex: F344/MALE, Target Tissue: Type of Lesion: BLADDER: CARCINOMA, Dose [Carcinogen]: 0.25 MG IN 0.5 ML OF 0.9% SALINE SOLUTION ONCE, Promoter: URINE) does the source give for `NCCCC(N)(C(=O)O)C(F)F` (centres undefined) here?
A: Its value is 31/36 (86%), 27/38 (71%), 17%, not calculated.

Q: And the “tumour outcome (control, treated, inhibition, significance)” value (Carcinogen: N-METHYL-N-NITROSOUREA, 684-93-5, Dose [Inhibitor]: 2% IN URINE 2/WK FOR 30 WK BEGINNING 1 WK POST CARCINOGEN DOSE (STUDY DURATION: 35 WK), Route [Inhibitor]: INTRAVESICAL, Species: RAT, Strain/Sex: F344/MALE, Target Tissue: Type of Lesion: BLADDER: CARCINOMA, Dose [Carcinogen]: 0.25 MG IN 0.5 ML OF 0.9% SALINE SOLUTION ONCE, Promoter: URINE)?
A: The value was 25/36 (69%), 13/35 (37%), 46%, p<0.025.

Q: And the “tumour outcome (control, treated, inhibition, significance)” value (Carcinogen: N-METHYL-N-NITROSOUREA, 684-93-5, Dose [Inhibitor]: 2% IN URINE 2/WK FOR 41 WK BEGINNING 1 WK POST CARCINOGEN DOSE (STUDY DURATION: 50 WK), Route [Inhibitor]: INTRAVESICAL, Species: RAT, Strain/Sex: F344/MALE, Target Tissue: Type of Lesion: BLADDER: CARCINOMA, Dose [Carcinogen]: 0.25 MG IN 0.5 ML OF 0.9% SALINE SOLUTION ONCE, Promoter: URINE)?
A: The value was 31/36 (86%), 30/38 (79%), 8%, not calculated.

Q: And the outcome (Dose [Inhibitor]: 0.5% IN DRINKING WATER FOR 2 MONTHS (STUDY DURATION: 2 MONTHS), Route [Inhibitor]: ORAL, Species: MOUSE, Target Tissue: Type of Lesion: DISTAL SMALL INTESTINE: TUMOR, Promoter: NONE)?
A: Its outcome is 10.38, 3.67, 65%, p<0.001.

Q: And the outcome (Dose [Inhibitor]: 0.5% IN DRINKING WATER FOR 2 MONTHS (STUDY DURATION: 2 MONTHS), Route [Inhibitor]: ORAL, Species: MOUSE, Target Tissue: Type of Lesion: MIDDLE SMALL INTESTINE: TUMOR, Promoter: NONE)?
A: The outcome was 23.75, 19.80, 17%, not significant.

Q: And the outcome (Dose [Inhibitor]: 0.5% IN DRINKING WATER FOR 2 MONTHS (STUDY DURATION: 2 MONTHS), Route [Inhibitor]: ORAL, Species: MOUSE, Target Tissue: Type of Lesion: PROXIMAL SMALL INTESTINE: TUMOR, Promoter: NONE)?
A: The outcome was 7.63, 6.40, 16%, not significant.

Q: What about the outcome (Dose [Inhibitor]: 1.0% IN DRINKING WATER FOR 2 MONTHS (STUDY DURATION: 2 MONTHS), Route [Inhibitor]: ORAL, Species: MOUSE, Target Tissue: Type of Lesion: DISTAL SMALL INTESTINE: TUMOR, Promoter: NONE) of the same molecule?
A: Its outcome is 10.38, 1.73, 83%, p<0.001.

Q: And the outcome (Dose [Inhibitor]: 1.0% IN DRINKING WATER FOR 2 MONTHS (STUDY DURATION: 2 MONTHS), Route [Inhibitor]: ORAL, Species: MOUSE, Target Tissue: Type of Lesion: MIDDLE SMALL INTESTINE: TUMOR, Promoter: NONE)?
A: The outcome was 23.75, 13.80, 42%,p<0.01.

Q: What about the “tumour outcome (control, treated, inhibition, significance)” value (Carcinogen: UV-A (20%), UV-B (80%) (WESTINGHOUSE FS320 SUNLAMP IN 280-400 NM), Dose [Inhibitor]: 0, 0.4% IN DRINKING WATER FOR 8 WK BEGINNING 22 WK POST CARCINOGEN FIRST DOSE (STUDY DURATION: 30 WK), Route [Inhibitor]: ORAL, Species: MOUSE, Strain/Sex: SKH:HR-1-HBR/FEMALE, Target Tissue: Type of Lesion: SKIN: TUMOR, Dose [Carcinogen]: 90 MJ/CM2 3 TIMES/WK, DOSE INCREASED BY 10% UNTIL REACHED 175 MJ/CM^2, BEGINNING 2 D POST AGENT DOSE, TREATMENT WS STOPP, Promoter: NONE) of the same molecule?
A: Its value is “?/? (100%), ?/? (95%), 5%, data presented graphically, not calculated”.

Q: And the “tumour outcome (control, treated, inhibition, significance)” value (Carcinogen: UV-A (20%), UV-B (80%) (WESTINGHOUSE FS320 SUNLAMP IN 280-400 NM), Dose [Inhibitor]: 0, 0.4% IN DRINKING WATER FOR 18 WK BEGINNING 12 WK POST CARCINOGEN FIRST DOSE (STUDY DURATION: 30 WK), Route [Inhibitor]: ORAL, Species: MOUSE, Strain/Sex: SKH:HR-1-HBR/FEMALE, Target Tissue: Type of Lesion: SKIN: TUMOR, Dose [Carcinogen]: 90 MJ/CM2 3 TIMES/WK, DOSE INCREASED BY 10% UNTIL REACHED 175 MJ/CM^2, BEGINNING 2 D POST AGENT DOSE, TREATMENT WS STOPP, Promoter: NONE)?
A: Its value is “?/? (100%), ?/? (100%), 0%, data presented graphically, not calculated”.

Q: What about the “tumour outcome (control, treated, inhibition, significance)” value (Carcinogen: UV-A (20%), UV-B (80%) (WESTINGHOUSE FS320 SUNLAMP IN 280-400 NM), Dose [Inhibitor]: 0, 0.4% IN DRINKING WATER FOR DURATION OF STUDY (STUDY DURATION: 30 WK), Route [Inhibitor]: ORAL, Species: MOUSE, Strain/Sex: SKH:HR-1-HBR/FEMALE, Target Tissue: Type of Lesion: SKIN: TUMOR, Dose [Carcinogen]: 90 MJ/CM2 3 TIMES/WK, DOSE INCREASED BY 10% UNTIL REACHED 175 MJ/CM^2, BEGINNING 2 D POST AGENT DOSE, TREATMENT WS STOPP, Promoter: NONE) of the same molecule?
A: Its value is “?/? (100%), ?/? (73%), 27%, data presented graphically, not calculated”.

Q: And the “tumour outcome (control, treated, inhibition, significance)” value (Carcinogen: UVB IRRADIATION, Dose [Inhibitor]: 0, 1% IN DRINKING WATER FOR DURATION OF STUDY BEGINNING 3 WK PRIOR TO CARCINOGEN TREATMENT (STUDY DURATION: 36 WK), Route [Inhibitor]: ORAL, Species: MOUSE, Strain/Sex: BALB/FEMALE, Target Tissue: Type of Lesion: SKIN: TUMOR, Dose [Carcinogen]: 1273 KJM2 TOTAL DOSE ADMINISTERED IN 30 MIN TREATMENTS 5 D/WK, Promoter: NONE USED)?
A: The value was 38%, 9%, 76%, p=0.025.

Q: What about the “tumour outcome (control, treated, inhibition, significance)” value (Dose [Inhibitor]: 0, 2% IN DRINKING WATER FOR 3 WK THEN REDUCED TO 1% FOR DURATION OF STUDY (STUDY DURATION: 9 MO), Route [Inhibitor]: ORAL, Species: RAT, Strain/Sex: F344/MALE, Target Tissue: Type of Lesion: LIVER: HEPATOCELLULAR CARCINOMA, Dose [Carcinogen]: 25 UG IN 0.2 ML DMSO 5 D/WK FOR 4 WK, Promoter: NONE USED) of the same molecule?
A: Its value is 40%, 16%, 60%, p<0.01.

Q: What about the “tumour outcome (control, treated, inhibition, significance)” value (Dose [Inhibitor]: 0, 2% IN DRINKING WATER FOR 3 WK THEN REDUCED TO 1% FOR DURATION OF STUDY ADMINISTERED TO RATS MAINTAINED ON CHOLINE-DEF, Route [Inhibitor]: ORAL, Species: RAT, Strain/Sex: F344/MALE, Target Tissue: Type of Lesion: LIVER: HEPATOCELLULAR CARCINOMA, Dose [Carcinogen]: 25 UG IN 0.2 ML DMSO 5 D/WK FOR 4 WK, Promoter: NONE USED) of the same molecule?
A: Its value is 71%, 28%, 61%, not calculated.
